Each structure is given as a SMILES string. Read-outs that look alike come from different tables or passages of the source. A value given as a limit tells only on which side of the number the result lay.

Common to all, as to type: cell-based
The subject of assay [1] is HCV 2b Rluc cells (NS5A chimeric genotype 2a JFH-1 replicon with genotype 2b MD2b-1 NS5A gene, M31 present). Nature of the assay: microbe, parasite or virus in culture. Particulars: Hepatitis C virus, read-out: 2b. The method, boiled down:
(§1)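 Replicon cells stably carrying the listed RLuc-encoding dicistronic replicons were seeded and treated with DMSO serial dilutions of compound (10 mM stocks) diluted into culture medium. After 72 h, cells were lysed and Renilla luciferase activity measured. EC50 was derived by non-linear regression.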

Assay [2] deals with HCV 2a JFH-1 Rluc cells (dicistronic genotype 2a JFH-1 replicon, RLuc reporter). Nature of the assay: microbe, parasite or virus in culture. As to conditions: Hepatitis C virus, read-out: 2a JFH. The method, boiled down: (§2)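 Renilla luciferase HCV replicon cells: dicistronic 1b Con1, 1a H77 or 2a JFH-1 replicons, or a JFH-1 chimera carrying J6 NS5A (M31 present). Compound in DMSO serial dilutions, 72 h incubation, then lysis and luciferase read. EC50 by non-linear regression.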

For assay [3], the system named is HCV 1b RLuc cells (dicistronic genotype 1b Con1 replicon, RLuc reporter). Briefly: microbe, parasite or virus in culture. As to conditions: Hepatitis C virus, read-out: 1b (nM). The method, boiled down: as §2
The subject of assay [4] is HCV 1a RLuc cells (dicistronic genotype 1a H77 replicon, RLuc reporter). Briefly: microbe, parasite or virus in culture. As to conditions: Hepatitis C virus, read-out: 1a. The method, boiled down: as §2
Assay [5] has as its system HCV 2a Rluc cells (NS5A chimeric genotype 2a JFH-1 replicon with genotype 2a J6 strain NS5A gene, M31 present). Nature of the assay: HCV replicon reporter assay, genotype 2a J6 (M31 present). Particulars: Hepatitis C virus, read-out: 2a J6. The method, then: Evaluation of cell-based anti-HCV activity: Antiviral potency (EC50) was determined using a Renilla luciferase (RLuc)-based HCV replicon reporter assay. To perform the assay for genotype 1 and 2a JFH-1, HCV 1b RLuc cells (harboring a dicistronic genotype 1b Con1 replicon that encodes a RLuc reporter), or HCV 1a RLuc cells (harboring a dicistronic genotype 1a H77 replicon that encodes a RLuc reporter), or HCV 2a JFH-1 Rluc cells (harboring a dicistronic genotype 2a JFH-1 replicon that encodes a RLuc reporter) were dispensed into 384-well plates. To perform the assay for genotype 2a (with M31 present) or 2b, HCV 2a Rluc or 2b Rluc cells (both with M31 present) harboring a dicistronic NS5A chimeric genotype 2a JFH-1 replicon that encodes a RLuc reporter and either genotype 2a J6 strain NS5A gene or genotype 2b MD2b-1 NS5A gene (based on Los Alamos HCV database isolates, both with M31 present) respectively, were dispensed into 384-well plates. To perform the assay for genotype 3 and 4, HCV 3a RLuc or 4a Rluc cells harboring a dicistronic NS5A chimeric genotype 1b Con1 replicon that encodes a RLuc reporter and either a consensus genotype 3a NS5A gene or genotype 4a NS5A gene (based on Los Alamos HCV database isolates) respectively, were dispensed into 384-well plates. Compounds were re-suspended in DMSO at a concentration of 10 mM and serially diluted in DMSO either manually or using an automated pipeting instrument. Serially diluted compounds were mixed with cell culture media and added to the seeded cells. […] 72 hours later, cells were lysed and Renilla luciferase activity quantified as recommended by the manufacturer (Promega-Madison, Wis.). Non-linear regression was performed to calculate EC50 values.

Assay [6] deals with HCV 4a Rluc cells (NS5A chimeric genotype 1b Con1 replicon with genotype 4a NS5A gene). Nature of the assay: microbe, parasite or virus in culture. Particulars: Hepatitis C virus, read-out: 4a. The method, boiled down:
as §1

Assay [7] has as its system HCV 3a RLuc cells (NS5A chimeric genotype 1b Con1 replicon with consensus genotype 3a NS5A gene). Briefly: microbe, parasite or virus in culture. As to conditions: Hepatitis C virus. The method, boiled down:
as §1

Where [8] appears, read: genotype 2a JFH-1 RLuc replicon.
[9] abbreviates: 72 h, Table 2, genotype 2a JFH-1 replicon, 72 hours.
Setting [10] is: read-out: 3a, Table 2, genotype 3a NS5A chimeric replicon.
Setting [11] is: 72 h, Table 2, genotype 1a H77 replicon, 72 hours.
The mark [12] stands for this setting: read-out: 3a, genotype 3a replicon.

As for `COC[C@H]1C[C@@H](c2ncc(-c3ccc4c(c3)COc3cc5c(ccc6nc([C@@H]7C[C@H](COC(F)F)CN7C(=O)[C@@H](NC(=O)OC)C(C)C)[nH]c65)cc3-4)[nH]2)N(C(=O)[C@@H](NC(=O)OC)C(C)C)C1` [Example 634], the EC50 in assay [1] was 0.001 to 0.999 nM; in assay [2] (setting [8]), 0.001 to 0.999 nM; in assay [3] it was 0.015 nM; in assay [4] (genotype 1a H77 RLuc replicon) it was 0.001 to 0.999 nM; in assay [5], 0.001 to 0.999 nM.
Consider `CC[C@@H](C)[C@H](NC(=O)OC)C(=O)N1C[C@@H](COC)C[C@H]1c1nc2ccc3cc4c(cc3c2[nH]1)OCc1cc(-c2cnc([C@@H]3CC[C@H](C)N3C(=O)[C@@H](NC(=O)OC)[C@H](C)CC)[nH]2)ccc1-4` [Example 643], for which the EC50 in assay [1], in assay [2] (setting [8]), in assay [4] (genotype 1a H77 RLuc replicon) and in assay [5] was 0.001 to 0.999 nM throughout.
On to `COC[C@H]1C[C@@H](c2nc3ccc4cc5c(cc4c3[nH]2)OCc2cc(-c3cnc([C@@H]4CCCN4C(=O)[C@H](NC(=O)OC)c4ccccc4)[nH]3)ccc2-5)N(C(=O)[C@@H](NC(=O)OC)[C@@H](C)OC)C1` [Example 635], for which the EC50 in assay [1], in assay [2] and in assay [4] was 0.001 to 0.999 nM each time.
As for `COC(=O)NC(C(=O)N1CCC[C@H]1c1ncc(-c2ccc(-c3ccc4c(ccc5nc([C@@H]6[C@H]7CC[C@H](C7)N6C(=O)[C@@H](NC(=O)OC)C(C)C)[nH]c54)c3)cc2)[nH]1)[C@@H](C)OC` (stereo partly drawn) [Example 68], the EC50 is 0.001 to 0.999 nM in assay [2] (setting [9]); 0.001 to 0.99 nM in assay [6]; 0.025 nM in assay [3] (72 h); 0.001 to 0.99 nM in assay [7] (setting [10]); 0.001 to 0.999 nM in assay [4] (setting [11]); 1 to 44 nM in assay [5].
Consider `COC(=O)N[C@H](C(=O)N1CCC[C@H]1c1ncc(-c2ccc3c(c2)COc2cc(-c4cnc([C@@H]5CCCN5C(=O)[C@@H](NC(=O)OC)C(C)C)[nH]4)cc(F)c2-3)[nH]1)C(C)C` [Example 393], for which the EC50 was 0.001 to 0.999 nM in assay [2] (genotype 2a JFH-1 replicon); 0.001 to 0.99 nM in assay [6]; 0.012 nM in assay [3]; 0.001 to 0.99 nM in assay [7] (setting [12]); 0.001 to 0.999 nM in assay [4] (genotype 1a replicon); above 44 nM in assay [5].
As to `COC[C@H]1C[C@@H](c2ncc(-c3ccc4c(c3)COc3cc5c(ccc6nc([C@@H]7CCCN7C(=O)[C@@H](NC(=O)OC)C(C)C)[nH]c65)cc3-4)[nH]2)N(C(=O)[C@H](N)c2ccccc2)C1` [Example 607], the EC50 in assay [1], in assay [2] (setting [8]), in assay [4] (genotype 1a H77 RLuc replicon) and in assay [5] was 0.001 to 0.999 nM each time.
In the case of `COC(=O)N[C@H](C(=O)N1CCC[C@H]1c1nc(Cl)c(-c2cc3c4c(c2)OCc2cc(-c5[nH]c([C@@H]6CCCN6C(=O)[C@H](NC(=O)OC)c6ccccc6)nc5Cl)cc(c2-4)OC3)[nH]1)C(C)C` [Example 399], the EC50 in assay [2] (genotype 2a JFH-1 replicon) was 0.001 to 0.999 nM; in assay [6], 0.001 to 0.99 nM; in assay [3], 0.017 nM; in assay [7] (setting [12]), 0.001 to 0.99 nM; in assay [4] (genotype 1a replicon), 0.001 to 0.999 nM; in assay [5] it was 0.001 to 0.999 nM.
On to `COC(=O)N[C@H](C(=O)N1CCC[C@H]1c1ncc(-c2cc3c4c(c2)COc2cc(-c5cnc([C@@H]6CCCN6C(=O)[C@@H](NC(=O)OC)C(C)C)[nH]5)cc(c2-4)CC3)[nH]1)C(C)C` [Example 370], for which the EC50 is 0.001 to 0.999 nM in assay [2] (genotype 2a JFH-1 replicon); 0.001 to 0.99 nM in assay [6]; 0.028 nM in assay [3]; 0.001 to 0.99 nM in assay [7] (setting [12]); 0.001 to 0.999 nM in assay [4] (genotype 1a replicon); above 44 nM in assay [5].
For the compound `COC(=O)N[C@H](C(=O)N1CCC[C@H]1c1ncc(-c2cc3c4c(c2)OCc2cc(-c5cnc([C@@H]6CCCN6C(=O)[C@@H](NC(=O)OC)C6CCOCC6)[nH]5)cc(c2-4)OC3)[nH]1)C(C)C` [Example 25b], the EC50 in assay [2] (72 h, Table 1, genotype 2a JFH-1 replicon, 72 hours) was 0.001 to 0.999 nM; in assay [6], 0.001 to 0.99 nM; in assay [3] (72 h), 0.176 nM; in assay [7] (read-out: 3a, Table 1, genotype 3a NS5A chimeric replicon) it was 0.001 to 0.99 nM; in assay [4] (72 h, Table 1, genotype 1a H77 replicon, 72 hours) it was 0.001 to 0.999 nM; in assay [5] it was 1 to 44 nM.
Consider `COC(=O)N[C@H](C(=O)N1CCC[C@H]1c1nc2ccc3cc(-c4ccc(-c5cnc([C@@H]6[C@H]7CC[C@H](C7)N6C(=O)[C@@H](NC(=O)OC)C(C)C)[nH]5)cc4)ccc3c2[nH]1)C(C)C` [Example 53], for which the EC50 in assay [2] (setting [9]) is 0.001 to 0.999 nM; in assay [6], 0.001 to 0.99 nM; in assay [3] (72 h), 0.01 nM; in assay [7] (setting [10]) it was 0.001 to 0.99 nM; in assay [4] (setting [11]) it was 0.001 to 0.999 nM; in assay [5] it was above 44 nM.
For the compound `COC(=O)N[C@H](C(=O)N1[C@@H]2C[C@@H]2C[C@H]1c1ncc(-c2ccc(-c3ccc4c(ccc5nc([C@@H]6C[C@H]7C[C@H]7N6C(=O)[C@@H](NC(=O)OC)C(C)C)[nH]c54)c3)cc2F)[nH]1)C(C)C` [Example 390], the EC50 in assay [2] (genotype 2a JFH-1 replicon) is 0.001 to 0.999 nM; in assay [6], 0.001 to 0.99 nM; in assay [3] it was 0.003 nM; in assay [7] (setting [12]), 1 to 4.99 nM; in assay [4] (genotype 1a replicon), 0.001 to 0.999 nM; in assay [5], above 44 nM.
For `COC(=O)N[C@H](C(=O)N1[C@@H]2CC[C@@H](C2)[C@H]1c1nc(Cl)c(-c2ccc(-c3ccc4c(ccc5nc([C@@H]6CCCN6C(=O)[C@H](NC(=O)OC)c6ccccc6)[nH]c54)c3)cc2)[nH]1)C(C)C` [Example 401], the EC50 is 0.001 to 0.999 nM in assay [2] (genotype 2a JFH-1 replicon); 0.001 to 0.99 nM in assay [6]; 0.015 nM in assay [3]; 0.001 to 0.99 nM in assay [7] (setting [12]); 0.001 to 0.999 nM in assay [4] (genotype 1a replicon); 1 to 44 nM in assay [5].
In the case of `COC(=O)N[C@H](C(=O)N1[C@@H](C)CC[C@H]1c1ncc(-c2ccc3c(c2)COc2cc4c(ccc5nc([C@@H]6CCCN6C(=O)[C@@H](NC(=O)OC)C6CCOCC6)[nH]c54)cc2-3)[nH]1)C(C)C` [Example 602], the EC50 in assay [1], in assay [2] (setting [8]), in assay [4] (genotype 1a H77 RLuc replicon) and in assay [5] was 0.001 to 0.999 nM in each case.
For the compound `COC(=O)N[C@H](C(=O)N1[C@@H]2CC[C@@H](C2)[C@H]1c1ncc(-c2ccc(-c3ccc4c(ccc5nc([C@@H]6CCCN6C(=O)[C@H](NC(=O)OC)c6ccccc6)[nH]c54)c3)cc2)[nH]1)C(C)C` [Example 315], the EC50 in assay [2] (genotype 2a JFH-1 replicon) was 0.001 to 0.999 nM; in assay [6] it was 0.001 to 0.99 nM; in assay [3], 0.023 nM; in assay [7] (setting [12]), 0.001 to 0.99 nM; in assay [4] (genotype 1a replicon), 0.001 to 0.999 nM; in assay [5] it was 1 to 44 nM.
As for `CC[C@@H](C)[C@H](NC(=O)OC)C(=O)N1C[C@@H](COC)C[C@H]1c1ncc(-c2ccc3c(c2)COc2cc4c(ccc5nc([C@@H]6CC[C@H](C)N6C(=O)[C@@H](NC(=O)OC)C(C)C)[nH]c54)cc2-3)[nH]1` [Example 628], the EC50 in assay [1], in assay [2] (setting [8]), in assay [4] (genotype 1a H77 RLuc replicon) and in assay [5] was 0.001 to 0.999 nM each time.
Regarding `CC[C@H](C)C(NC(=O)OC)C(=O)N1CCC[C@H]1c1ncc(-c2cc3c4c(c2)OCc2cc(-c5cnc([C@@H]6CCCN6C(=O)[C@@H](NC(=O)OC)[C@@H](C)CC)[nH]5)cc(c2-4)OC3)[nH]1` (stereo in doubt) [Example 346], the EC50 in assay [1] was 1 to 44 nM; in assay [2] it was 0.001 to 0.999 nM; in assay [6] it was 0.001 to 0.99 nM; in assay [3], 0.019 nM; in assay [7] (setting [12]), 0.001 to 0.99 nM; in assay [4] it was 0.001 to 0.999 nM.

The values above are taken from patent publication US10344019B2 (priority 2010, dated 2019).
